Experiment [1] concerns E. coli S30 extract (bacterial protein synthesis). The experiment in a line: E. coli S30 extract coupled transcription-translation luciferase assay (inhibition of bacterial protein synthesis). The class given is biochemical. As to conditions: read-out: S30 IC50 (μM/% inhib.). How it is done:
E. coli S30 extract: Inhibition of bacterial protein synthesis was determined using the E. coli S30 Extract System for Circular DNA (Promega catalog #L-2010) and Luciferase Assay Reagent (Promega catalog #E1500) with slight modifications to a published protocol. Fyfe, C., Sutcliffe, J. A. and Grossman, T. H. (2012) “Development and characterization of a Pseudomonas aeruginosa in vitro coupled transcription-translation assay system for evaluation of translation inhibitors” J. Microbiol. Methods 90(3), 256-261.
Compounds were serial diluted in 0.5 mL microcentrifuge tubes by mixing and transferring 50 μL from the highest concentration to 50 μL of water, mixing and transferring 50 μL of this 2-fold dilution to 50 μL of water. This mixing and transferring was repeated so that there are a total of 8 tubes with serial dilutions of compound at 10× the desired screening concentration that are ultimately diluted to 1× by the addition of S30 luciferase synthesis mixture. Serial dilutions of compounds were added (2 μL) to wells in a black round bottom 96-well plate. Water (2 μL) was used as a “no inhibitor” control in 4 wells/plate. No DNA control reaction mixture (20 μL; see below) was used as a control in 4 wells/plate for background luminescence. S30 luciferase synthesis mixture (18 μL; see below) was added to wells with compounds or water mixture and incubated at 37° C. for 1 hour. Reactions were stopped by transferring to 4° C. refrigerator for 5 minutes then 25 μL of luciferase activity mix was added. Luminescence was measured using a BioTek Synergy HTX plate reader. % Inhibition was determined relative to no inhibitor controls.
S30 luciferase synthesis mixture:
• 445 μL S30 extract, circular • 712 μL S30 Premix without amino acids • 4.45 μL pBESTluc™ DNA (1 μg/μL) • 78 μL complete amino acid mixture • 267 μL water No DNA control: • 20 μL S30 extract, circular • 32 μL S30 Premix without amino acids • 7 μL complete amino acid mixture • 21 μL water Rabbit Reticulocyte lysate

Experiment [2] addresses Rabbit Reticulocyte Lysate (eukaryotic protein synthesis). Put plainly: Rabbit reticulocyte lysate luciferase assay (inhibition of eukaryotic protein synthesis). It is filed as biochemical. As to conditions: read-out: Rabbit reticulocyte IC50 (μM/% inhib.). How it is done: Inhibition of eukaryotic protein synthesis was determined using the Rabbit Reticulocyte Lysate System, Nuclease-Treated from Promega (catalog #L-4960) with slight modifications to the manufacturer's protocol. Compounds were serial diluted in 0.5 mL microcentrifuge tubes by mixing and transferring 50 μL from the highest concentration to 50 μL of water, mixing and transferring 50 μL of this 2-fold dilution to 50 μL of water. This mixing and transferring was repeated so that there are a total of 8 tubes with serial dilutions of compound at 10× the desired screening concentration that are ultimately diluted to 1× by the addition of rabbit reticulocyte luciferase synthesis mixture. Serial dilutions of compounds were added ([…]) to wells in a black round bottom 96-well plate. Water (2.5 μL) was used as a “no inhibitor” control in 4 wells/plate. No RNA control reaction mixture ([…]; see below) was used as a control in 4 wells/plate for background luminescence. Rabbit reticulocyte luciferase synthesis mixture (22.5 μL; see below) was added to wells with compounds or water mixture and incubated at 30° C. for 90 minutes. Luciferase assay reagent (25 μL) was added with luminescence measured using a BioTek Synergy HTX plate reader. % Inhibition was determined relative to no inhibitor controls.
Rabbit reticulocyte luciferase synthesis mixture:
• 1,000 μL rabbit reticulocyte lysate • 5.7 μL Luciferase Control RNA (1 μg/μL) • 26 μL complete amino acid mixture • 395 μL water No RNA Control • 70 μL rabbit reticulocyte lysate • 2 μL complete amino acid mixture • 28 μL water Minimum Inhibitory Concentration (MIC)

Setting [3] is: class by IC50 or % inhibition @ 1 μM.

Structures can show the parent of a compound that is named as a salt. Where two headings read alike, the source gives them in different places.

As for `CC(C)(N)C(=O)N1CCN(C(=O)Nc2ccn(-c3ccc(CN4CCC(N)CC4)cc3)c(=O)n2)C[C@H]1C(=O)O` [Compound 81], the IC50 in experiment [1] (setting [3]) and in experiment [2] (setting [3]) was above 1 µM each time.

Turning to `Cc1cc(-n2ccc(NC(=O)N3CCN(C(=O)C(C)(N)CO)CC3)nc2=O)ccc1CN1CCC(N)CC1` (centres unmarked) [Compound 101], the IC50 in experiment [1] (setting [3]) is 0.5 to 1 µM; in experiment [2] (setting [3]) it was above 1 µM.

`CC[C@H]1CN(C(=O)C(C)(C)N)CCN1C(=O)Nc1ccn(-c2ccc(CN3CCC(N)CC3)cc2)c(=O)n1` [Compound 83]: the IC50 in experiment [1] (setting [3]) and in experiment [2] (setting [3]) was above 1 µM throughout.

Take `NC1CCN(Cc2ccc(-n3ccc(NC(=O)N4CCC[C@@H](N)C4)nc3=O)cc2)CC1` [Compound 47]: the IC50 in experiment [1] (setting [3]) and in experiment [2] (setting [3]) was above 1 µM throughout.

As for `CC(C)(N)C(=O)N1CCN(C(=O)Nc2ccn(-c3ccc(CN4CCC(C(F)(F)F)CC4)cc3)c(=O)n2)CC1` [Compound 107], the IC50 in experiment [1] (setting [3]) and in experiment [2] (setting [3]) was above 1 µM throughout.

As to `C[C@H](N)C(=O)NC1CCN(Cc2ccc(-n3ccc(NC(=O)N4CCN(C(=O)[C@@](C)(N)CO)CC4)nc3=O)cc2)CC1` [Compound 100], the IC50 is 0.5 to 1 µM in experiment [1] (setting [3]) and above 1 µM in experiment [2] (setting [3]).

Turning to `C[C@](N)(CO)C(=O)N1CCN(C(=O)Nc2ccn(-c3ccc(CCN4CC[C@@H](N)C4)cc3)c(=O)n2)CC1` [Compound 11], the results for the IC50 in experiment [1] (setting [3]) and in experiment [2] (setting [3]) were 0.5 to 1 µM and above 1 µM, respectively.

Turning to `CC(C)(N)CC(=O)N1CCN(C(=O)Nc2ccn(-c3cccc(CN4CCC(N)CC4)c3)c(=O)n2)CC1` [Compound 362], the IC50 in experiment [1] (% inhibition @ 1 μM) and in experiment [2] (% inhibition @ 1 μM) was above 1 µM each time.

For `CN(C)C1CCCN(CCc2ccc(-n3ccc(NC(=O)N4CCN(C(=O)C(C)(C)N)CC4)nc3=O)cc2)CC1` (centres unmarked) [Compound 36], the IC50 in experiment [1] (setting [3]) and in experiment [2] (setting [3]) was above 1 µM each time.

As for `CC(C)(N)C(=O)N1C[C@@H]2CC1CN2C(=O)Nc1ccn(-c2ccc(CN3CCC(N)CC3)cc2)c(=O)n1` [Compound 80], the IC50 is 0.5 to 1 µM in experiment [1] (setting [3]) and above 1 µM in experiment [2] (setting [3]).

With `CC(C)(N)C(=O)N1CCN(C(=O)Nc2ccn(-c3cccc(CCN4CC[C@@H](N)C4)c3)c(=O)n2)CC1` [Compound 5], the IC50 in experiment [1] (setting [3]) and in experiment [2] (setting [3]) was above 1 µM throughout.

As for `C[C@@H]1CN(C(=O)C(C)(C)N)C[C@H](C)N1C(=O)Nc1ccn(-c2ccc(CN3CCC(N)CC3)cc2)c(=O)n1` [Compound 76], the IC50 in experiment [2] (setting [3]) is above 1 µM.

With `C[C@H](N)C1CCN(Cc2ccc(-n3ccc(NC(=O)N4CCN(C(=O)C(C)(C)N)[C@H](C)C4)nc3=O)cc2)CC1` [Compound 206], the IC50 in experiment [1] (setting [3]) and in experiment [2] (setting [3]) was above 1 µM each time.

Consider `CC(C)(N)C(=O)N1CCN(C(=O)Nc2ccn(-c3ccc(CN4CCC(NC(=N)N)CC4)cc3)c(=O)n2)CC1` [Compound 105], for which the IC50 in experiment [1] (setting [3]) and in experiment [2] (setting [3]) was below 0.5 µM throughout.

Turning to `CC(C)(N)C(=O)N1CCN(C(=O)Nc2ccn(-c3ccc(C4(CN5CCCC(N)CC5)CC4)cc3)c(=O)n2)CC1` (centres unmarked) [Compound 40], the IC50 in experiment [1] (setting [3]) and in experiment [2] (setting [3]) was above 1 µM throughout.

Take `CC(C)(N)C(=O)N1CCN(C(=O)Nc2ccn(-c3ccc(CN4CCOC(CN)C4)cc3)c(=O)n2)CC1` (centres unmarked) [Compound 135]: the IC50 in experiment [1] (setting [3]) and in experiment [2] (setting [3]) was above 1 µM each time.

Consider `CC(C)(N)C(=O)N1CCN(C(=O)Nc2ccn(-c3ccc(C(C)(C)CN4CCCC(N)CC4)cc3)c(=O)n2)CC1` (centres unmarked) [Compound 37], for which the IC50 in experiment [1] (setting [3]) and in experiment [2] (setting [3]) was above 1 µM in each case.

Consider `CC(C)(N)CC(=O)N1CCN(C(=O)Nc2ccn(-c3cccc(CN4CCC(C)(N)CC4)c3)c(=O)n2)CC1` [Compound 363, hydrochloride salt], for which the IC50 in experiment [1] (% inhibition @ 1 μM) and in experiment [2] (% inhibition @ 1 μM) was above 1 µM throughout.

For `CC(C)[C@H](N)C(=O)NC(C)(C)C(=O)N1CCN(C(=O)Nc2ccn(-c3ccc(CN4CCC(N)CC4)cc3)c(=O)n2)CC1` [Compound 364, hydrochloride salt], the results for the IC50 in experiment [1] (% inhibition @ 1 μM) and in experiment [2] (% inhibition @ 1 μM) were below 0.5 µM and above 1 µM, respectively.

On to `NC1CCN(Cc2ccc(-n3ccc(NC(=O)N4C[C@H]5CNC[C@H]5C4)nc3=O)cc2)CC1` [Compound 50], for which the IC50 in experiment [1] (setting [3]) and in experiment [2] (setting [3]) was above 1 µM in each case.

As for `CC(C)(N)CC(=O)N1CCN(C(=O)Nc2ccn(-c3ccc(CCN4CCC(N)CC4)cc3)c(=O)n2)CC1` [Compound 197], in experiment [1] (setting [3]), the IC50 was above 1 µM.

As for `NC[C@@H]1CCN(C(=O)Nc2ccn(-c3ccc(CN4CCC(N)CC4)cc3)c(=O)n2)C1` [Compound 53], the IC50 in experiment [1] (setting [3]) and in experiment [2] (setting [3]) was above 1 µM throughout.

As for `CC(C)(N)C(=O)N1CCCC2C1CCCN2C(=O)Nc1ccn(-c2ccc(CN3CCC(N)CC3)cc2)c(=O)n1` (centres unmarked) [Compound 86], the IC50 in experiment [1] (setting [3]) and in experiment [2] (setting [3]) was above 1 µM throughout.

Consider `CC[C@@H]1CN(C(=O)C(C)(C)N)CCN1C(=O)Nc1ccn(-c2ccc(CN3CCC(N)CC3)cc2)c(=O)n1` [Compound 84], for which the IC50 in experiment [1] (setting [3]) and in experiment [2] (setting [3]) was above 1 µM each time.

For the compound `C[C@H](N)C1CCN(Cc2ccc(-n3ccc(NC(=O)N4CCN(C(=O)[C@@](C)(N)CO)C[C@H]4C)nc3=O)cc2)CC1` [Compound 207], the IC50 in experiment [1] (setting [3]) and in experiment [2] (setting [3]) was above 1 µM in each case.

As to `C[C@@H]1CN(C(=O)C(C)(C)N)[C@H](C)CN1C(=O)Nc1ccn(-c2ccc(CN3CCC(N)CC3)cc2)c(=O)n1` [Compound 88], the IC50 in experiment [1] (setting [3]) and in experiment [2] (setting [3]) was above 1 µM in each case.

For the compound `CC(C)(N)C(=O)N1CCN(C(=O)Nc2ccn(-c3ccc(CN4CCC(N)CC4)cc3)c(=O)n2)CC1c1ccccc1` (centres unmarked) [Compound 75], the IC50 in experiment [2] (setting [3]) is above 1 µM.

Turning to `CCC1CN(C(=O)Nc2ccn(-c3ccc(CN4CCC(N)CC4)cc3)c(=O)n2)CCN1C(=O)C(C)(C)N` (centres unmarked) [Compound 78], the IC50 in experiment [1] (setting [3]) and in experiment [2] (setting [3]) was above 1 µM in each case.

As for `CC1(N)CCN(CCc2ccc(-n3ccc(NC(=O)N4CCN(C(=O)C(C)(N)CO)CC4)nc3=O)cc2)CC1` (stereo in doubt) [Compound 361], the IC50 in experiment [1] (% inhibition @ 1 μM) and in experiment [2] (% inhibition @ 1 μM) was above 1 µM in each case.

With `NCC1CN(C(=O)Nc2ccn(-c3ccc(CN4CCC(N)CC4)cc3)c(=O)n2)CCO1` (centres unmarked) [Compound 51], the IC50 in experiment [1] (setting [3]) and in experiment [2] (setting [3]) was above 1 µM in each case.

Consider `CC(C)(N)C(=O)N1CCN(C(=O)Nc2ccn(-c3ccc(CCN4CC[C@H](N)C4)cc3)c(=O)n2)CC1` [Compound 7], for which the IC50 in experiment [1] (setting [3]) is above 1 µM.

Regarding `CC(C)(N)C(=O)N1CCN(C(=O)Nc2ccn(-c3ccc(CCN4CC(N)C4)cc3)c(=O)n2)CC1` [Compound 16], the IC50 in experiment [1] (setting [3]) and in experiment [2] (setting [3]) was above 1 µM in each case.

Consider `CNC1CCN(CCc2cccc(-n3ccc(NC(=O)N4CCN(C(=O)C(C)(C)N)CC4)nc3=O)c2)CC1` [Compound 4], for which, in experiment [1] (setting [3]), the IC50 is above 1 µM.

Turning to `C[C@@H]1CN(C(=O)C(C)(C)N)[C@@H](C)CN1C(=O)Nc1ccn(-c2ccc(CN3CCC(N)CC3)cc2)c(=O)n1` [Compound 60], the IC50 in experiment [2] (setting [3]) is above 1 µM.

As to `CC(C)(N)C(=O)N1CCN(C(=O)Nc2ccn(-c3ccc(CN4CCC(N)CC4)cc3)c(=O)n2)CC1(C)C` [Compound 73], in experiment [2] (setting [3]), the IC50 is above 1 µM.

`CC(C)(N)C(=O)N1CCN(C(=O)Nc2ccn(-c3ccc(CCN4CCC[C@H](N)C4)cc3)c(=O)n2)CC1` [Compound 9]: the IC50 in experiment [1] (setting [3]) was above 1 µM.

Consider `CC(C)(N)C(=O)N1CCN(C(=O)Nc2ccn(-c3cccc(CCN4CCCC(CN)C4)c3)c(=O)n2)CC1` (centres unmarked) [Compound 3], for which the IC50 in experiment [1] (setting [3]) was above 1 µM.

For the origin of these results see patent publication US12503452B2 (Curza Global, LLC, priority 2019, dated 2025).
